Results: patent US20250120975A1, “INTEGRIN INHIBITORS FOR TREATMENT OF PRIMARY SCLEROSING CHOLANGITIS” (Pliant Therapeutics, Inc., priority 2023, published 2025)
“Also recorded” adds a separate entry of the source.

Tests used:
[1] = tested on: BALB/c.Mdr2−/− mouse model of biliary fibrosis; assay: Direct (invasive) portal venous pressure measurement; assay type: in vivo; conditions: 100, 300, 1000 mg/kg PO/QD, 6 weeks
Protocol: Antifibrotic activity of (S)-4-((2-methoxyethyl)(4-(5,6,7,8-tetrahydro-1,8-naphthyridin-2-yl)butyl)amino)-2-(quinazolin-4-ylamino)butanoic acid was tested in the BALBc.Mdr2−/− murine model of liver biliary fibrosis. […] BALBc.Mdr2−/− mice develop periductular fibrotic lesions at 4 weeks with rapid and progressive fibrotic progression. Bridging fibrosis and early cirrhosis is observed at 12 weeks along with severe portal hypertension and enhanced collagen deposition.
The tissue source is BALBc.Mdr2-/−male mice that were 6 weeks old. The Mdr2(abcb4)−/− mouse model of sclerosing cholangitis has been previously described and is a model of spontaneously progressive hepatic fibrosis in mice with deletion of the biliary phospholipid flippase on fibrosis-susceptible background (Mdr2(abcb4)^−/−. BALB/c mouse). See N. Ikenaga, et al. (2015) Am J Pathol. 185 (2): 325-334, the entire contents of which are hereby incorporated by reference in their entirety. […]
After laparotomy, the portal vein of the mouse subject was cannulated through an ileocolic vein, and portal pressure was measured directly by inserting a 1.2-Fr high-fidelity pressure catheter. Pressure signals were recorded at 2 kHz for 5 Min, and analyzed using PowerLab software. […]

[2] = tested on: BALB/c.Mdr2−/− mouse model of biliary fibrosis; assay: Assessment of body and organ weights (liver, spleen) and colon length; assay type: in vivo; conditions: 6 weeks
Text: The tissue source is BALBc.Mdr2-/−male mice that were 6 weeks old. The Mdr2(abcb4)−/− mouse model of sclerosing cholangitis has been previously described and is a model of spontaneously progressive hepatic fibrosis in mice with deletion of the biliary phospholipid flippase on fibrosis-susceptible background (Mdr2(abcb4)^−/−. BALB/c mouse). See N. Ikenaga, et al. (2015) Am J Pathol. 185 (2): 325-334, the entire contents of which are hereby incorporated by reference in their entirety.
(S)-4-((2-methoxyethyl)(4-(5,6,7,8-tetrahydro-1,8-naphthyridin-2-yl)butyl)amino)-2-(quinazolin-4-ylamino)butanoic acid (or PBS) was dosed once daily orally at 100 mg/kg, 300 mg/kg or 1000 mg/kg (see Table B-2) starting at 6 weeks after birth of the subject and continuing for 6 weeks. All animals were euthanized and necropsied at the end of week 12.
Body, liver and spleen weights and colon length were determined at necropsy. Liver and plasma were snap frozen/preserved in liquid nitrogen. Two pieces of liver were fixed in formalin for histological assessment.

other integrin receptors = assay: Integrin-ligand binding assays (selectivity); conditions: including leukocyte-expressed integrins
[3] = tested on: subjects with PSC and suspected liver fibrosis; assay: Phase 2a INTEGRIS-PSC: Itch Numerical Rating Scale (NRS); assay type: in vivo, human
Protocol: In one embodiment is provided a method of reducing itch or pruritus (chronic itching). Itch can be quantified on a 0-10 scale using the Peak Pruritus Numerical Rating Scale (NRS), where 0 is “no itch” and 10 is “worst imaginable itch” over the past 24 hours (Yosipovitch et al., British Journal of Dermatology (2019) 181:761-769, incorporated by reference herein in its entirety). In embodiments, a method of reducing pruritus in a human who has fibrotic liver disease is provided, comprising administering to the human(S)-4-((2-methoxyethyl)(4-(5,6,7,8-tetrahydro-1,8-naphthyridin-2-yl)butyl)amino)-2-(quinazolin-4-ylamino)butanoic acid, or a pharmaceutically acceptable salt thereof. In embodiments, a method of reducing (e.g., ameliorating) pruritus in a human who has fibrotic liver disease (e.g., primary sclerosing cholangitis) is provided, comprising administering to the human(S)-4-((2-methoxyethyl)(4-(5,6,7,8-tetrahydro-1,8-naphthyridin-2-yl)butyl)amino)-2-(quinazolin-4-ylamino)butanoic acid, or a pharmaceutically acceptable salt thereof, as compared to a human who has not been administered(S)-4-((2-methoxyethyl)(4-(5,6,7,8-tetrahydro-1,8-naphthyridin-2-yl)butyl)amino)-2-(quinazolin-4-ylamino)butanoic acid, or a pharmaceutically acceptable salt thereof. […] In further embodiments, pruritus is reduced as measured by a change in itch numerical rating scale from between about 0.8 and about-0.2 at about 12 weeks following a first administration of (S)-4-((2-methoxyethyl)(4-(5,6,7,8-tetrahydro-1,8-naphthyridin-2-yl)butyl)amino)-2-(quinazolin-4-ylamino)butanoic acid, or a pharmaceutically acceptable salt thereof to the human. […]

[4] = tested on: PCLivS from human liver tissue with biliary fibrosis (PSC, PBC); assay: Fibrotic gene expression (NanoString) in precision cut liver slices; assay type: cell-based
[5] = ≥1 μM, PCLivS from 10 livers with biliary fibrosis (6 PSC, 4 PBC), 2 days

`COCCN(CCCCc1ccc2c(n1)NCCC2)CC[C@H](Nc1ncnc2ccccc12)C(=O)O` [Bexotegrast, (S)-4-((2-methoxyethyl)(4-(5,6,7,8-tetrahydro-1,8-naphthyridin-2-yl)butyl)amino)-2-(quinazolin-4-ylamino)butanoic acid] was tested, and the portal venous pressure [1] was “did not induce any changes”, the “liver weight relative to vehicle control” value ([2]; 1000 mg/kg/day) was “decreased” and the colon length ([2]; 100, 300, 1000 mg/kg) was “did not change”. For the same molecule, the spleen weights ([2]; all doses (100, 300, 1000 mg/kg)) was “no changes”, the “selectivity for αVβ6 and αVβ1 over other integrin receptors” value (other integrin receptors) was “highly selective” and the “Itch Numerical Rating Scale (NRS) score” value ([3]; 320 mg, over 24 weeks, relative to an increase on placebo, Example B-5) was “did not increase; also recorded: stable score”. The “itch (NRS) relative to placebo” value ([3]; 40, 80, 160 mg, Week 12, statistical significance for the 160 mg dose, Example B-3) was “dose dependent reductions”, the “itch (NRS) relative to the placebo” value ([3]; 40-320 mg, Week 12, statistical significance for the 160 mg, 320 mg groups, Example B-4) was “dose-dependent reductions” and the “inhibition of the TGF-β-driven COLIA2 expression” value ([4]; relative to inhibition with high dose ALK5 inhibitor, PCLivS from 10 livers) was ≤ 43%. For the same molecule, the “significant reduction in expression of COLIA2” value [4, 5] was 19%, the “significant reduction in expression of TGF-81” value [4, 5] was 24% and the “trend down in overall expression of COL3A1” value [4, 5] was 15%.
